Reference: patent US20220242846A1, “ISOINDOLINONE COMPOUNDS” (Monte Rosa Therapeutics AG, priority 2019, published 2022)
Where two headings read alike, the source gives them in different places.

How the values were obtained:
[1] = molecular target: T1, Full length wild-type cereblon CRBN (Homo sapiens, UniProt Q96SW2); assay: Fluorescence polarization (FP) assay indicating cereblon binding; conditions: CRBN 80.0 nM, fluorescent probe 5 nM, FP measured after 12 hours; read-out: rFP IC50
T1 construct: Full length wild-type cereblon CRBN (80.0 nM, 10 μL) was incubated in assay buffer
Summary of the method: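 Full-length wild-type human CRBN (80.0 nM) preincubated 30 min at room temperature with compound (12-point curve, 300-0.937 or 3000-9.3 nM) in HEPES pH 8.0, NaCl, TCEP, Tween 20. Thalidomide-based Cy5-type probe then added at 5 nM final; FP read after 12 h (ex 590, em 675 nm), normalized to DMSO, IC50 derived.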

[2] = test system: Human mammary epithelial cells (HMEC) engineered to express c-myc tagged with EGFP; assay: 3D spheroid assay, myc-HMEC (CellTiterGlo3D viability); assay type: cell-based
Protocol: (§1) 3D Spheroid Experiments—HMEC
(§2) Human mammary epithelial cells (HMEC) were engineered to express either c-myc tagged with EGFP or EGFP alone (non myc) (analogous but distinct from Kessler J D et al, Science. 2012 Jan. 20; 335(6066):348-53. doi: 10.1126/science.1212728; Hsu T Y et al, Nature. 2015 Sep. 17; 525(7569):384-8. doi: 10.1038/nature14985). The engineered cells were seeded at 1000 (myc) or 4000 (non myc) cells/well in a 384 ultra-low attachment plate in a total volume of 40 µL, HMEC cell culture media (DMEM/F12+10% HI-FBS+15 mM HEPES+0.5 ug/ml Hydrocortisone+10 ug/ml Insulin+20 ng/ml EGF). Plates were spun at 1200 rpm for 5 minutes at room temperature to ensure that cells have gathered in the middle of the well and incubated at 37° C. for 48 hrs before firing with compounds. On Day 2 (48 h post seeding) cells were imaged (brightfield and EGFP fluorescence) using the Celigo imaging cytometer prior to firing compounds. For primary screens, compounds were added at three concentrations (1.25, 10 and 30 uM) in a volume of 120 nL using the ECHO acoustic dispenser and spun at 2000 rpm for 2 minutes at room temperature before incubating at 37° C. for 5 days. […] On Day 7, prior to measuring cell viability using CellTiterGlo3D, cells were imaged (brightfield and EGFP fluorescence) on the Celigo imaging cytometer. The CellTiterGlo3D reagent is added at 30uL/well and incubated at room temperature for 30mins After 30mins of incubation, luminescence readings were recorded using the Perkin Elmer EnVision reader.

GSPT1 = GSPT1 (Homo sapiens, UniProt P15170+Q96SW2); assay: Immunofluorescence assay for GSPT1 degradation in CAL-51 cells; assay type: cell-based; set-up: CAL-51 cells were purchased from DSMZ (cat. Number ACC302); endogenous in cells; host or cells: CAL-51 (DSMZ ACC302); conditions: compound treatment 6 hours
Summary of the method: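 CAL-51 cells on fibronectin-coated plates treated 6 h with compound (30 μM to 0.1 nM); fixed, stained with anti-GSPT1/Alexa-488, phalloidin and DAPI, imaged by high-content microscopy. Mean GSPT1 intensity per cell normalized to controls; DC50 by non-linear regression.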

[3] = test system: Human mammary epithelial cells (HMEC) engineered to express EGFP alone (non myc); assay: 3D spheroid assay, non myc-HMEC (CellTiterGlo3D viability); assay type: cell-based; conditions: 120 h, 3D spheroids, 5 days with compound, read-out: Code: EC50 value in the non myc-HMEC assay
Protocol: as §1, §2

[4] = Homo sapiens, HMEC, 120 h, 3D spheroids, 5 days with compound, read-out: Code: EC50 value in the myc-HMEC assay
[5] = read-out: Code: activity for GSPT1 degradation (DC50)
[6] = myc-HMEC 3D spheroids (compounds with code D and E), 5 days, read-out: EC50

Chain of GSPT1 (P15170 whole entry): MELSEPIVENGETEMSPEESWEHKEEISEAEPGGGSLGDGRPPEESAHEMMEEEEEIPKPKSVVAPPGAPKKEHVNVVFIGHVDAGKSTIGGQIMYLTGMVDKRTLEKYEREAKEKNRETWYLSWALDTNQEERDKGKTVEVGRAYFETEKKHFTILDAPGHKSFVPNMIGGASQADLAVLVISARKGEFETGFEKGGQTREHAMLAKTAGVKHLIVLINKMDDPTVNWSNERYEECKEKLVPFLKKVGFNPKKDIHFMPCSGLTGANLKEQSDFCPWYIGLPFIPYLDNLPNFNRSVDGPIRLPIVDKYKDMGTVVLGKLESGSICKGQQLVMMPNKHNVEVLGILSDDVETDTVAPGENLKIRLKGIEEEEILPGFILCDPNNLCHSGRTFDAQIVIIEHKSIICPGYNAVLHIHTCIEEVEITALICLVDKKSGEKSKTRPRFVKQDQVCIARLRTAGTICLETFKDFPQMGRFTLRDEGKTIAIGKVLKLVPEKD
Chain of GSPT1 (Q96SW2 whole entry): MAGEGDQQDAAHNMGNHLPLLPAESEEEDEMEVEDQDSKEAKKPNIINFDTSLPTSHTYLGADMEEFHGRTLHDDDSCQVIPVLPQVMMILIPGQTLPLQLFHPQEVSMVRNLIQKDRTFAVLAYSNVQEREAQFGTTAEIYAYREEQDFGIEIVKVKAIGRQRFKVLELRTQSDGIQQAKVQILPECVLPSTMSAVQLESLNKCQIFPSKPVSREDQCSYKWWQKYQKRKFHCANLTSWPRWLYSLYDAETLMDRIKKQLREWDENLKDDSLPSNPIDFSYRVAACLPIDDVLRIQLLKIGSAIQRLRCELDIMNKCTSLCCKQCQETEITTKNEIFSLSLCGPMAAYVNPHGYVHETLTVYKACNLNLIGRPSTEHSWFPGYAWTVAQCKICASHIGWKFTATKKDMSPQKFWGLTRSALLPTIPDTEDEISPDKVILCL
Chain of GSPT1 (Q16531 2-1140 partner limits assumed): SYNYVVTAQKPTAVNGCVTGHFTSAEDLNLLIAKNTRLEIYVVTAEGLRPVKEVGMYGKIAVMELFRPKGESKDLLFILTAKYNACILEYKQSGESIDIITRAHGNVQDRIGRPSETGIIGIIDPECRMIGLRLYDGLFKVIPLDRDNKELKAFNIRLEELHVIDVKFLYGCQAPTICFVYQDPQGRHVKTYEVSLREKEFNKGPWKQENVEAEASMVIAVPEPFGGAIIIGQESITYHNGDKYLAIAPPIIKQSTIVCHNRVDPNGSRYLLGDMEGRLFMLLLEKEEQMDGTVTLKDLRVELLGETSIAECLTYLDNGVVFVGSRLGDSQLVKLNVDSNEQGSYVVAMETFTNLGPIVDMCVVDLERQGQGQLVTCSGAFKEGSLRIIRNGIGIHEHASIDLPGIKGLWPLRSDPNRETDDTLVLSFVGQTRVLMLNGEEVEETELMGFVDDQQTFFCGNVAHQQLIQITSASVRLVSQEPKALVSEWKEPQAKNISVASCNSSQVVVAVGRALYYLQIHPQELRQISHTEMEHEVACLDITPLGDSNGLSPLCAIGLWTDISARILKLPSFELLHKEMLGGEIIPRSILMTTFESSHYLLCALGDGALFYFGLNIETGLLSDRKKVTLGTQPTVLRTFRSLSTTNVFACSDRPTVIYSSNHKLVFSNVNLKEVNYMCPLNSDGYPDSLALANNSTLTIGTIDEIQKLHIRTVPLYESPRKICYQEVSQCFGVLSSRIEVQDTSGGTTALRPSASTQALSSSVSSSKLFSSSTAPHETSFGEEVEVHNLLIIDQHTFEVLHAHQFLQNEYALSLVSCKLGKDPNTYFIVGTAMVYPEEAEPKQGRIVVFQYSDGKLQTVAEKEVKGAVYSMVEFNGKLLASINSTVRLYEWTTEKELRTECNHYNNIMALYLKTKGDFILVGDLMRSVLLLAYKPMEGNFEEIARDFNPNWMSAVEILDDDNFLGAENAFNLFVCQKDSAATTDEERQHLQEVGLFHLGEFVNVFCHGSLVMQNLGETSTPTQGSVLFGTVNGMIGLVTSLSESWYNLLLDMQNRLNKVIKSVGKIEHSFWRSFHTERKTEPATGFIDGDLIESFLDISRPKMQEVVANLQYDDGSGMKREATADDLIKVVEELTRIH
T1 sequence (Q96SW2 whole entry): as the sequence (Q96SW2 whole entry) above

| SMILES | IC50 [1] [µM] | EC50 [2, 4] [µM] | DC50 (GSPT1; [5]) [µM] | EC50 [3] [µM] | EC50 [2, 6] [µM] | DC50 (GSPT1; GSPT1 degradation, read-out: DC50) [µM] |
| --- | --- | --- | --- | --- | --- | --- |
| O=C1CCC(N2Cc3ccc(CNC(=O)Nc4cc(Cl)ccc4Cl)cc3C2=O)C(=O)N1 (stereo not shown) [Compound 35] | 0.602 | > 2 | > 0.3 | > 10 |  |  |
| CCc1ccc(NC(=O)NCc2ccc3c(c2)C(=O)N(C2CCC(=O)NC2=O)C3)cc1 (stereo not shown) [Compound 18] | 0.552 | > 2 | > 0.3 | > 10 |  |  |
| O=C1CCC(N2Cc3ccc(CNC(=O)Nc4ccc(F)c(F)c4)cc3C2=O)C(=O)N1 (stereo not shown) [Compound 39] | 0.587 | > 2 | > 0.3 | > 10 |  |  |
| Cc1ccc(NC(=O)NCc2ccc3c(c2)C(=O)N(C2CCC(=O)NC2=O)C3)cc1 (stereo not shown) [Compound 21] | 0.622 | > 2 | > 0.3 | > 10 |  |  |
| Cc1cccc(NC(=O)NCc2ccc3c(c2)C(=O)N(C2CCC(=O)NC2=O)C3)c1 (stereo not shown) [Compound 43] | 0.757 | > 2 | > 0.3 | > 10 |  |  |
| O=C1CCC(N2Cc3ccc(CNC(=O)Nc4ccccc4Cl)cc3C2=O)C(=O)N1 (stereo not shown) [Compound 4] | 0.483 | > 2 | > 0.3 | > 10 |  |  |
| Cc1cccc(CNC(=O)NCc2ccc3c(c2)C(=O)N(C2CCC(=O)NC2=O)C3)c1 (stereo not shown) [Compound 63] | 0.492 | > 2 | > 0.3 | > 10 |  |  |
| C[C@H](NC(=O)NCc1ccc2c(c1)C(=O)N(C1CCC(=O)NC1=O)C2)c1ccccc1 (stereo partly shown) [Compound 55] | 0.497 | > 2 | > 0.3 | > 10 |  |  |
| CCc1cccc(NC(=O)NCc2ccc3c(c2)C(=O)N(C2CCC(=O)NC2=O)C3)c1 (stereo not shown) [Compound 31] | 0.595 | 0.4 to 2 | 0.1 to 0.3 | > 10 | 0.457 |  |
| COc1ccc(NC(=O)NCc2ccc3c(c2)C(=O)N(C2CCC(=O)NC2=O)C3)cc1 (stereo not shown) [Compound 5] | 0.339 | > 2 | > 0.3 | > 10 |  |  |
| C[C@@H](NC(=O)NCc1ccc2c(c1)C(=O)N(C1CCC(=O)NC1=O)C2)c1ccccc1 (stereo partly shown) [Compound 54] | 0.471 | > 2 | > 0.3 | > 10 |  |  |
| O=C1CCC(N2Cc3ccc(CNC(=O)Nc4ccccc4-c4ccccc4)cc3C2=O)C(=O)N1 (stereo not shown) [Compound 66] | 0.449 | > 2 | > 0.3 | > 10 |  |  |
| O=C1CCC(N2Cc3ccc(CNC(=O)NCC4CCCCC4)cc3C2=O)C(=O)N1 (stereo not shown) [Compound 58] | 0.54 | > 2 | > 0.3 | > 10 |  |  |
| O=C1CCC(N2Cc3ccc(CNC(=O)NC4CCCC4)cc3C2=O)C(=O)N1 (stereo not shown) [Compound 28] | 0.814 | > 2 | > 0.3 | > 10 |  |  |
| O=C1CCC(N2Cc3ccc(CNC(=O)Nc4ccccc4C(F)(F)F)cc3C2=O)C(=O)N1 (stereo not shown) [Compound 49] | 0.867 | > 2 | > 0.3 | > 10 |  |  |
| O=C1CCC(N2Cc3ccc(CNC(=O)NCc4ccccc4)cc3C2=O)C(=O)N1 (stereo not shown) [Compound 24] | 1.59 | > 2 | > 0.3 | > 10 |  |  |
| CCCCCCNC(=O)NCc1ccc2c(c1)C(=O)N(C1CCC(=O)NC1=O)C2 (stereo not shown) [Compound 13] | 0.944 | > 2 | > 0.3 | > 10 |  |  |
| O=C1CCC(N2Cc3ccc(CNC(=O)Nc4cccc(Cl)c4Cl)cc3C2=O)C(=O)N1 (stereo not shown) [Compound 50] | 0.479 | > 2 | > 0.3 | > 10 |  |  |
| CC(C)(C)NC(=O)NCc1ccc2c(c1)C(=O)N(C1CCC(=O)NC1=O)C2 (stereo not shown) [Compound 10] | 0.763 | > 2 | > 0.3 | > 10 |  |  |
| O=C1CCC(N2Cc3ccc(CNC(=O)NCc4ccc(C(F)(F)F)cc4)cc3C2=O)C(=O)N1 (stereo not shown) [Compound 65] | 0.637 | > 2 | > 0.3 | > 10 |  |  |
| CCNC(=O)NCc1ccc2c(c1)C(=O)N(C1CCC(=O)NC1=O)C2 (stereo not shown) [Compound 15] | 0.902 | > 2 | > 0.3 | > 10 |  |  |
| Cc1cc(C)cc(NC(=O)NCc2ccc3c(c2)C(=O)N(C2CCC(=O)NC2=O)C3)c1 (stereo not shown) [Compound 20] | 0.55 | 0.4 to 2 | ≤ 0.1 | > 10 | 0.555 |  |
| CC(C)NC(=O)NCc1ccc2c(c1)C(=O)N(C1CCC(=O)NC1=O)C2 (stereo not shown) [Compound 12] | 0.96 | > 2 | > 0.3 | > 10 |  |  |
| Cc1ccc(NC(=O)NCc2ccc3c(c2)C(=O)N(C2CCC(=O)NC2=O)C3)cc1C (stereo not shown) [Compound 68] | 0.29 | 0.4 to 2 | 0.1 to 0.3 | > 10 | 0.458 | 0.2 |
| CCOc1ccc(NC(=O)NCc2ccc3c(c2)C(=O)N(C2CCC(=O)NC2=O)C3)cc1 (stereo not shown) [Compound 16] | 0.817 | > 2 | > 0.3 | > 10 |  |  |
| COc1ccc(Cl)cc1NC(=O)NCc1ccc2c(c1)C(=O)N(C1CCC(=O)NC1=O)C2 (stereo not shown) [Compound 30] | 0.58 | ≤ 0.4 | ≤ 0.1 | > 10 | 0.359 |  |
| O=C1CCC(N2Cc3ccc(CNC(=O)NCCc4ccc(Cl)cc4)cc3C2=O)C(=O)N1 (stereo not shown) [Compound 64] | 0.4 | > 2 | > 0.3 | > 10 |  |  |
| Cc1c(Cl)cccc1NC(=O)NCc1ccc2c(c1)C(=O)N(C1CCC(=O)NC1=O)C2 (stereo not shown) [Compound 19] | 0.576 | > 2 | > 0.3 | > 10 |  |  |
| N#Cc1cccc(NC(=O)NCc2ccc3c(c2)C(=O)N(C2CCC(=O)NC2=O)C3)c1 (stereo not shown) [Compound 73] | 0.211 | > 2 | > 0.3 | > 10 |  |  |
